# Data from patent publication US7598258B2, “Quinoline derivatives and quinazoline derivatives inhibiting autophosphorylation of macrophage colony stimulating factor receptor” (Kirin Beer Kabushiki Kaisha, priority 2002, dated 2009).
# Molecular target: T1, mouse c-fms (Mus musculus, UniProt P09581)
# T1 construct: Macrophage-like cell line BAC-1.2F5 which expresses c-fms as a M-CSF receptor on cell membranes; endogenous in cells; host or cells: BAC-1.2F5 mouse macrophage-like cell line
# T1 sequence (P09581 20-977): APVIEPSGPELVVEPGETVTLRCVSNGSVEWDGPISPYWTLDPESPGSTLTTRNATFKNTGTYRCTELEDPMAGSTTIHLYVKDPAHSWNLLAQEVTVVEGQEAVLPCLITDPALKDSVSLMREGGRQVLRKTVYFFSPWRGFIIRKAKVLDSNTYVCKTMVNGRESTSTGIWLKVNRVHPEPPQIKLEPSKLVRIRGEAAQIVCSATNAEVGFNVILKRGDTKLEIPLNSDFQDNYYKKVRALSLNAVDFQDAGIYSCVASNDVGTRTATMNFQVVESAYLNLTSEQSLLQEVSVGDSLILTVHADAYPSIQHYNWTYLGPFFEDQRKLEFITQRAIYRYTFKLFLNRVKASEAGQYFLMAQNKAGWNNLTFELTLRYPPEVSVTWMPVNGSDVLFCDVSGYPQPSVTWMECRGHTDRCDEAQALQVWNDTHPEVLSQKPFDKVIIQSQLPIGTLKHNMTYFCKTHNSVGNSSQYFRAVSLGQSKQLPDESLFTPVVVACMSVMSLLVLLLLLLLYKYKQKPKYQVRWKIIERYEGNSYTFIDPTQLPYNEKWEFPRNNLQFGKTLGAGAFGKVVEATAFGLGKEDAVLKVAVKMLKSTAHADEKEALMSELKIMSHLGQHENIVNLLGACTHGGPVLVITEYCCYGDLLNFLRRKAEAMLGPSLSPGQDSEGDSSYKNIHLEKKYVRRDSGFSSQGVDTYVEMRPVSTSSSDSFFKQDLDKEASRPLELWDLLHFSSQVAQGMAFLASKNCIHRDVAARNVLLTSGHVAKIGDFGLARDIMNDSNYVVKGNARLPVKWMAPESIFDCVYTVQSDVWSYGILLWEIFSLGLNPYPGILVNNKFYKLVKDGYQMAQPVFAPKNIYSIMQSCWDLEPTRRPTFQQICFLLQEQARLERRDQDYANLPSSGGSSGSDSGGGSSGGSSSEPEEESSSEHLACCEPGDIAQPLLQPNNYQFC
# Experiment: Inhibition of c-fms autophosphorylation in macrophage-like cell line BAC-1.2F5 by M-CSF stimulation (ELISA)
# Format: cell-based
# Details: BAC-1.2F5 cells, human recombinant M-CSF 50 ng/ml, read-out: c-fms autophosphorylation 50% inhibitory concentration (IC50)
# How it was run: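 BAC-1.2F5 cells serum-starved (0.1% FCS) 12 h, preincubated with compound 1 h at 37° C, then stimulated 6 min with 50 ng/ml human recombinant M-CSF. Lysates captured on anti-phosphotyrosine plates, detected with anti-c-fms antiserum and peroxidase read-out at 450 nm. IC50 from inhibition normalised between ±M-CSF controls.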
row,IC50,SMILES
1,6.5 nM,"COc1cc2nccc(Oc3ccc(NC(=O)N[C@H](C)c4ccc(F)cc4)cc3F)c2cc1OC [Example 33, N-{4-[(6,7-Dimethoxy-4-quinolyl)oxy]-3-fluorophenyl}-N′-[(1R)-1-(4-fluorophenyl)ethyl]urea]"
2,5.7 nM,"COc1cc2c(Oc3ccc(NC(=O)NC(C)c4ccc(F)cc4)c(F)c3)ccnc2cc1OCCCN1CCOCC1 (centres unmarked) [Example 67, N-(2-Fluoro-4-{[6-methoxy-7-(3-morpholinopropoxy)-4-quinolyl]oxy}phenyl)-N′-[1-(4-fluorophenyl)ethyl]urea]"
3,6.2 nM,"COc1cc2nccc(Oc3ccc(NC(=O)NC(C)c4nccs4)cc3OC)c2cc1OC (centres unmarked) [Example 80, N-{4-[(6,7-Dimethoxy-4-quinolyl)oxy]-3-methoxyphenyl}-N′-[1-(1,3-thiazol-2-yl)ethyl]urea]"
4,29.4 nM,"COc1cc2nccc(Oc3ccc(NC(=O)N[C@H](C)c4cccc(Br)c4)c(C)c3C)c2cc1OC [Example 62, N-[(1R)-1-(3-Bromophenyl)ethyl]-N′-{4-[(6,7-dimethoxy-4-quinolyl)oxy]-2,3-dimethylphenyl}urea]"
5,2 nM,"COc1cc(Oc2ccnc3cc(OC)c(OC)cc23)ccc1NC(=O)NC(C)c1ccc(F)cc1 (centres unmarked) [Example 16, N-{4-[(6,7-Dimethoxy-4-quinolyl)oxy]-2-methoxyphenyl}-N′-[1-(4-fluorophenyl)ethyl]urea]"
6,4 nM,"COc1cc2nccc(Oc3ccc(NC(=O)NC(C)c4ccc(F)cc4)c(Cl)c3)c2cc1OC (centres unmarked) [Example 4, N-{2-Chloro-4-[(6,7-dimethoxy-4-quinolyl)oxy]phenyl}-N′-[1-(4-fluorophenyl)ethyl]urea]"
7,17.4 nM,"COc1cc2nccc(Oc3ccc(NC(=O)N[C@H](C)c4nccs4)c(C(F)(F)F)c3)c2cc1OC [Example 85, N-[4-[(6,7-Dimethoxy-4-quinolyl)oxy]-2-(trifluoromethyl)phenyl]-N′-[(1R)-1-(1,3-thiazol-2-yl)ethyl]urea]"
8,12.6 nM,"COc1cc(Oc2ccnc3cc(OC)c(OC)cc23)ccc1NC(=O)NC(C)c1nc(C)c(C)s1 (centres unmarked) [Example 99, N-{4-[(6,7-Dimethoxy-4-quinolyl)oxy]-2-methoxyphenyl}-N′-[1-(4,5-dimethyl-1,3-thiazol-2-yl)ethyl]urea]"
9,3.7 nM,"COc1cc(Oc2ccnc3cc(OC)c(OC)cc23)ccc1NC(=O)N[C@H](C)c1ccc(F)cc1 [Example 18, N-{4-[(6,7-Dimethoxy-4-quinolyl)oxy]-2-methoxyphenyl}-N′-[(1R)-1-(4-fluorophenyl)ethyl]urea]"
10,13.9 nM,"COc1cc2c(Oc3ccc(NC(=O)NC(C)c4ccc(F)c(F)c4)cc3F)ccnc2cc1OCCCN1CCOCC1 (centres unmarked) [Example 65, N-[1-(3,4-Difluorophenyl)ethyl]-N′-(3-fluoro-4-{[6-methoxy-7-(3-morpholinopropoxy)-4-quinolyl]oxy}phenyl)urea]"
11,6.2 nM,"COc1cc2nccc(Oc3ccc(NC(=O)N[C@@H](C)c4nccs4)cc3OC)c2cc1OC [Example 81, N-{4-[(6,7-Dimethoxy-4-quinolyl)oxy]-3-methoxyphenyl}-N′-[(1S)-1-(1,3-thiazol-2-yl)ethyl]urea]"
12,13.2 nM,"COc1cc2nccc(Oc3ccc(NC(=O)N[C@H](C)c4ccc(F)cc4)cc3OC)c2cc1OC [Example 24, N-{4-[(6,7-Dimethoxy-4-quinolyl)oxy]-3-methoxyphenyl}-N′-[(1R)-1-(4-fluorophenyl)ethyl]urea]"
13,44.3 nM,"COc1cc2nccc(Oc3ccc(NC(=O)N[C@H](C)c4cccc(Br)c4)cc3OC)c2cc1OC [Example 61, N-[(1R)-1-(3-Bromophenyl)ethyl]-N′-{4-[(6,7-dimethoxy-4-quinolyl)oxy]-3-methoxyphenyl}urea]"
14,69.5 nM,"COc1ccc([C@@H](C)NC(=O)Nc2ccc(Oc3ccnc4cc(OC)c(OC)cc34)cc2)cc1 [Example 54, N-{4-[(6,7-Dimethoxy-4-quinolyl)oxy]phenyl}-N′-[(1R)-1-(4-methoxyphenyl)ethyl]urea]"
